Consider one compound from paper PMC8778187, “A New Oxygen Containing Pyclen-Type Ligand as a Manganese(II) Binder for MRI and ^52Mn PET Applications: Equilibrium, Kinetic, Relaxometric, Structural and Radiochemical Studies” (Molecules, 2022).

Several values for one entry are separate records, joined by “and”; a condition that tells them apart may be missing. Identical values can stand only once.

The nature of the data set: Metal exchange reactions with Cu(II) followed by UV-Vis as a function of pH. Format: physicochemical. The protocol: Metal exchange reactions occurring with Cu(II) studied as a function of pH: a more detailed dissociation kinetic study was performed by using the Cu(II) ion. Metal exchange reactions occurring with Cu(II) were followed by UV-Vis as a function of the pH (in the pH range of 3.44–4.97) and metal ion concentration (20- and 40-fold excess of Cu(II) was applied), in order to evaluate the rates of spontaneous (k0 rate constant) and/or proton assisted (k1 rate constant) and/or metal ion provoked dissociation (kM).
As it can be seen in Figure 4, the rate constants (kobs) are proportional to the H^+ ion concentration, while they slightly decrease with the increasing Cu(II) concentration. Therefore, one can assume that [Mn(3,9-OPC2A)] dissociates by following spontaneous (the positive value of the intercept with the y axis) and proton assisted pathways, while Cu(II) is involved in the formation of a dinuclear intermediate with a relatively low stability [Mn(3,9-OPC2A)Cu]^2+, which is a “dead-end” complex (i.e., its formation reduces the concentration of the reactive protonated species, thereby slowing down the reaction). The dissociation pathways followed by [Mn(3,9-OPC2A)] can be accounted for by Equation (1), where [Mn(L)]t is the total concentration of the Mn(II) complex, and the k0, kH, and kM are the rate constants characterizing the spontaneous, the proton and metal ion assisted pathways, respectively. (1) −d[Mn(L)]/dt=kobs[Mn(L)]t=k0[Mn(L)]+kH[Mn(HL)]+kHHMnH2L+kM[Mn(L)Cu]
Using the expressions for the stability and protonation constants of the complexes, and that of the dinuclear intermediate [Mn(L)Cu], one can derive Equation (1) (in this expression k1 = kH × KMnL×H; k2 = kH^H × KMnL×H; × KMnLH×H; k3 = kM × KMnL×Cu; where KMnL×H; and KMnLH×H are the protonation constants of [Mn(3,9-OPC2A)] and KMnL×Cu is the stability constant of the dinuclear [Mn(3,9-OPC2A)Cu]^2+ intermediate, which is used for the fitting of the kobs rate data—the proton assisted dissociation pathways involving a diprotonated intermediate, characterized k2, play a negligible role in the dissociation of the [Mn(3,9-OPC2A)] complex under the experimental conditions used for kinetic studies. (2) kobs=k0+k1H^+/1+KHH^++KMCu^2+
Metal exchange reactions occurring between the complex and Cu(II) (in the presence of a 20- and 40-fold excess, to ensure pseudo-first-order conditions) was investigated at 25 °C and 0.15 M NaCl ionic strength, by using a JASCO V-760 UV-VIS spectrophotometer at 290 nm. […] The values of the pseudo-first-order rate constants (kobs) were determined using the following equation: At = Av + (A0 − Av)e^kobs×t, where At is the absorbance at time t, A0 is the absorbance of the reactants, and Av is the absorbance of the products.

On to `O=C([O-])CN1CCOCCN(CC(=O)[O-])Cc2cccc(n2)C1.[Mn+2]` [[Mn(3,9-OPC2A)]], for which the “t1/2 (h) at pH = 7.4” value (extrapolated to pH = 7.4 from Cu(II) exchange rate constants, calculated with the use of k0 value, cZn(II) = 1 × 10^−5 M) is reported as 21.9 h. The k1 (proton assisted dissociation, T = 25 °C, I = 0.15 M NaCl) is 2.81 ± 0.07 M⁻¹ s⁻¹ and 2.81 M⁻¹ s⁻¹. In addition, under “spontaneous dissociation, T = 25 °C, I = 0.15 M NaCl, to be treated as higher limit”, the k0 result was “(8.6 ± 1.1) × 10^−6 s^−1”. For the same compound, under “stability constant of dinuclear intermediate, T = 25 °C, I = 0.15 M NaCl”, the “KML x Cu” value is 7 ± 4.
